In US12643867B2, “Compositions and uses thereof” (University of Virginia Patent Foundation, priority 2017, dated 2026):

How the values were obtained:
Assay in all cases: SILAC LC-MS ATP acyl phosphate probe competition, native kinases in HEK293T
Format in all cases: binding
[1] = biological target: T1, BRAF (B-Raf proto-oncogene serine/threonine-protein kinase) (Homo sapiens, UniProt P15056); details: site Lys2; ATP 1 mM; Ketanserin, Ritanserin 100 μM; RF001 1 mM
T1 construct: measured against >50 native kinases quantified in HEK293T soluble proteomes; endogenous in cells; host or cells: HEK293T soluble proteome
Experimental: (§1) Proteomes were diluted to 2 mg/ml in kinase buffer. The light and heavy proteomes (0.5 mg, 250 μL total reaction volume) were pre-treated with vehicle or compound, respectively (5 μL, DMSO (light) or 50× stock in DMSO (heavy)), mixed gently, and incubated at 25° C. for 30 min. […] After incubation, matched light and heavy proteomes were transferred and mixed in a 1:1 ratio in a two-dram vial containing 4:1:3 MeOH/CHCl3/H2O (2 mL MeOH, 500 AL CHCl3, 1.5 mL H2O) for extraction of proteins to remove excess probe, quickly vortexed, and centrifuged at 1,400×g for 3 min to pellet protein. Organic and aqueous layers were removed using a Pasteur pipette, and the protein pellet was transferred to a screw-top tube in 600 μL MeOH. A second extraction was performed by adding CHCl3 (150 μL) and H2O (600 μL) to each sample, vortexed, and centrifuged at 1,400×g for 3 min to pellet protein. Organic and aqueous layers were removed by pipetting. MeOH added to pellet (600 μL) and pellets were re-suspended by sonication (3×1 sec pulse, 20% amplitude) for a final extraction. Samples were then centrifuged at 17,000×g for 5 min to pellet protein and MeOH was removed by pipetting. The pellets were re-suspended in 10 M urea/25 mM ammonium bicarbonate ([…]), brought to a final volume of 1 mL with 25 mM ammonium bicarbonate, reduced with 10 mM DTT for 15 min at 65° C. allowed to cool, and then alkylated with 40 mM iodoacetamide for 30 min at 25° C. in the dark. To desalt the samples, each was transferred to a two-dram glass vial, and to the vial 4:1:2 MeOH/CHCl3/H2O (2 mL MeOH, 500 AL CHCl3, 1 mL H2O) was added. The vials were vortexed quickly, spun at 1.400×g for 3 min to pellet protein, and aqueous and organic layers were removed using a Pasteur pipette. The resulting protein pellet was transferred to a screw-top tube in 600 μL MeOH, and then CHCl3 (150 μL) and HO (600 μL) were added to extract protein a second time. The samples were vortexed quickly, centrifuged at 1,400×g to pellet protein, and the aqueous and organic layers were removed by pipetting. Resulting protein pellet was suspended in MeOH (600 μL) via sonication (3×1 sec pulse, 20% amplitude), centrifuged at 17,000×g for 5 min to pellet protein, and MeOH removed by pipetting. Protein pellets were then re-suspended in 25 mM ammonium bicarbonate (500 μL) and digested with 7.5 μg Trypsin/Lys-C(Promega, 15 μL, 0.5 μg/μL) for 3 h at 37° C. Avidin-agarose beads (Thermo Scientific Pierce, 100 AL aliquot per sample) were washed three times by adding 10 mL DPBS, centrifuged at 1,400×g for 1 min, and decanting. This wash step was repeated for a total of 3 times. Digested protein samples were mixed with washed avidin beads (100 μL) and brought to a volume of 5.5 mL with DPBS in a 15 mL conical and rotated for 1 h to enrich samples for the covalent desthiobiotin modification. The beads were washed with 25 mM ammonium bicarbonate (3× with 10 mL, centrifuge at 1,400×g for 3 min, decant) and then H2O (3× with 10 mL, centrifuge at 1,400×g for 3 min, decant). Washed beads were then transferred to a low-bind microfuge tube, centrifuged at 1,400×g for 3 min, allowed to rest for 1 min to settle beads, and then excess H2O was removed carefully using a gel-loading pipette tip. To elute peptides, 100 μL of elution buffer (50% acetonitrile, ACN; 0.1% formic acid) was added to each sample and incubated for 3 min. Beads were spun down at 1.400×g for 3 min, allowed to rest for 1 min to settle beads, and then 75 μL of peptide-containing supernatant was removed carefully using a gel-loading pipette tip and transferred to a new low bind centrifuge tube. This step was repeated two more times with 75 μL of elution buffer and all eluent were collected into the same centrifuge tube (˜225 μL total). Peptides were dried on a speed vacuum, resulting peptide samples acidified in 5% (v/v) formic acid, and stored at −80° C. until analysis.
(§2) The peptide samples were analyzed by liquid chromatography-mass spectrometry. […]

[2] = biological target: T2, CDK1 (Cell division control protein 2 homolog) (Homo sapiens, UniProt P06493); details: site Lys2; ATP 1 mM; Ketanserin, Ritanserin 100 μM; RF001 1 mM
T2 construct: measured against >50 native kinases quantified in HEK293T soluble proteomes; endogenous in cells; host or cells: HEK293T soluble proteome
Experimental: as §1, §2

[3] = biological target: T3, KCC2G (Calcium/calmodulin-dependent protein kinase type II gamma chain) (Homo sapiens, UniProt Q13555); details: site Lys1; ATP 1 mM; Ketanserin, Ritanserin 100 μM; RF001 1 mM
T3 construct: measured against >50 native kinases quantified in HEK293T soluble proteomes; endogenous in cells; host or cells: HEK293T soluble proteome
Experimental: as §1, §2

[4] = biological target: T4, M3K4 (Mitogen-activated protein kinase kinase kinase 4) (Homo sapiens, UniProt Q9Y6R4); details: site Lys2; ATP 1 mM; Ketanserin, Ritanserin 100 μM; RF001 1 mM
T4 construct: Native kinases; endogenous in cells; host or cells: HEK293T soluble proteome
Experimental: as §1, §2

[5] = biological target: T5, NEK3 (Serine/threonine-protein kinase Nek3) (Homo sapiens, UniProt P51956); details: site ACT; ATP 1 mM; Ketanserin, Ritanserin 100 μM; RF001 1 mM
T5 construct: Native kinases; endogenous in cells; host or cells: HEK293T soluble proteome
T5 sequence (P51956 1-506): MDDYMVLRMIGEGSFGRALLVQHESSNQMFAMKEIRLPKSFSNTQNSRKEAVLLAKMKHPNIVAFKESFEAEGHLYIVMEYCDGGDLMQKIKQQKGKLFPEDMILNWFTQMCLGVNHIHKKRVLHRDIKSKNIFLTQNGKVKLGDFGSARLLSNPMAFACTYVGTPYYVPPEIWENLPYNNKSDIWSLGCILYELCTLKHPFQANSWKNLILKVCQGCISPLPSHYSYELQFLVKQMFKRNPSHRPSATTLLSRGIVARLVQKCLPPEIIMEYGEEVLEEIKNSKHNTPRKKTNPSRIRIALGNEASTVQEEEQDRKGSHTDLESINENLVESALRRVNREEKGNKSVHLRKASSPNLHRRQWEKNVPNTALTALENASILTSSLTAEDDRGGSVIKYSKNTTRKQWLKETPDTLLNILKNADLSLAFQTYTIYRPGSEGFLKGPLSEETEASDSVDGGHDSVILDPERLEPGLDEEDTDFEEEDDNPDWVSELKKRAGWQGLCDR
Experimental: as §1, §2

[6] = biological target: T6, SMG1 (Serine/threonine-protein kinase SMG1) (Homo sapiens, UniProt Q96Q15); details: site ATP; ATP 1 mM; Ketanserin, Ritanserin 100 μM; RF001 1 mM
T6 construct: Native kinases; endogenous in cells; host or cells: HEK293T soluble proteome
Experimental: as §1, §2

T1 sequence (P15056 whole entry): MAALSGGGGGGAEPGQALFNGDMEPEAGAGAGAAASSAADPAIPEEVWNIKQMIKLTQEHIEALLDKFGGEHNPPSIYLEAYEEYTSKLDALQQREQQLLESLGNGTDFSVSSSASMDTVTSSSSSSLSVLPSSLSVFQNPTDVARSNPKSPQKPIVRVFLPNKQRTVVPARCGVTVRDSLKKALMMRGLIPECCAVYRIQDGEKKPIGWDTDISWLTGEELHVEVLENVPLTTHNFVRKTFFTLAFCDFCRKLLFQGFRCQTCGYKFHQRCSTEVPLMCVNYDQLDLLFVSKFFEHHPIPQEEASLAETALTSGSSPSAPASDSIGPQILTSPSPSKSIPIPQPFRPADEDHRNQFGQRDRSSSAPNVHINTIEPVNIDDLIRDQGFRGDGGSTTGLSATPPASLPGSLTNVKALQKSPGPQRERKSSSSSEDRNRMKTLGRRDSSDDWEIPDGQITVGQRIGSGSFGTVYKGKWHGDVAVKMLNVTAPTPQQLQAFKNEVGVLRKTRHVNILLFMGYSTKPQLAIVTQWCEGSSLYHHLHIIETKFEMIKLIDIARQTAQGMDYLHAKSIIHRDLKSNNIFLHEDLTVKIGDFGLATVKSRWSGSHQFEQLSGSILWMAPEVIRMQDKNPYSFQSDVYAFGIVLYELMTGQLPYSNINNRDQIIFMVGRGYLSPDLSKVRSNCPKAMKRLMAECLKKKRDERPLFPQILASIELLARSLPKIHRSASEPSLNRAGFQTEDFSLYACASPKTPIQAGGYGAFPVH
T4 sequence (Q9Y6R4 whole entry): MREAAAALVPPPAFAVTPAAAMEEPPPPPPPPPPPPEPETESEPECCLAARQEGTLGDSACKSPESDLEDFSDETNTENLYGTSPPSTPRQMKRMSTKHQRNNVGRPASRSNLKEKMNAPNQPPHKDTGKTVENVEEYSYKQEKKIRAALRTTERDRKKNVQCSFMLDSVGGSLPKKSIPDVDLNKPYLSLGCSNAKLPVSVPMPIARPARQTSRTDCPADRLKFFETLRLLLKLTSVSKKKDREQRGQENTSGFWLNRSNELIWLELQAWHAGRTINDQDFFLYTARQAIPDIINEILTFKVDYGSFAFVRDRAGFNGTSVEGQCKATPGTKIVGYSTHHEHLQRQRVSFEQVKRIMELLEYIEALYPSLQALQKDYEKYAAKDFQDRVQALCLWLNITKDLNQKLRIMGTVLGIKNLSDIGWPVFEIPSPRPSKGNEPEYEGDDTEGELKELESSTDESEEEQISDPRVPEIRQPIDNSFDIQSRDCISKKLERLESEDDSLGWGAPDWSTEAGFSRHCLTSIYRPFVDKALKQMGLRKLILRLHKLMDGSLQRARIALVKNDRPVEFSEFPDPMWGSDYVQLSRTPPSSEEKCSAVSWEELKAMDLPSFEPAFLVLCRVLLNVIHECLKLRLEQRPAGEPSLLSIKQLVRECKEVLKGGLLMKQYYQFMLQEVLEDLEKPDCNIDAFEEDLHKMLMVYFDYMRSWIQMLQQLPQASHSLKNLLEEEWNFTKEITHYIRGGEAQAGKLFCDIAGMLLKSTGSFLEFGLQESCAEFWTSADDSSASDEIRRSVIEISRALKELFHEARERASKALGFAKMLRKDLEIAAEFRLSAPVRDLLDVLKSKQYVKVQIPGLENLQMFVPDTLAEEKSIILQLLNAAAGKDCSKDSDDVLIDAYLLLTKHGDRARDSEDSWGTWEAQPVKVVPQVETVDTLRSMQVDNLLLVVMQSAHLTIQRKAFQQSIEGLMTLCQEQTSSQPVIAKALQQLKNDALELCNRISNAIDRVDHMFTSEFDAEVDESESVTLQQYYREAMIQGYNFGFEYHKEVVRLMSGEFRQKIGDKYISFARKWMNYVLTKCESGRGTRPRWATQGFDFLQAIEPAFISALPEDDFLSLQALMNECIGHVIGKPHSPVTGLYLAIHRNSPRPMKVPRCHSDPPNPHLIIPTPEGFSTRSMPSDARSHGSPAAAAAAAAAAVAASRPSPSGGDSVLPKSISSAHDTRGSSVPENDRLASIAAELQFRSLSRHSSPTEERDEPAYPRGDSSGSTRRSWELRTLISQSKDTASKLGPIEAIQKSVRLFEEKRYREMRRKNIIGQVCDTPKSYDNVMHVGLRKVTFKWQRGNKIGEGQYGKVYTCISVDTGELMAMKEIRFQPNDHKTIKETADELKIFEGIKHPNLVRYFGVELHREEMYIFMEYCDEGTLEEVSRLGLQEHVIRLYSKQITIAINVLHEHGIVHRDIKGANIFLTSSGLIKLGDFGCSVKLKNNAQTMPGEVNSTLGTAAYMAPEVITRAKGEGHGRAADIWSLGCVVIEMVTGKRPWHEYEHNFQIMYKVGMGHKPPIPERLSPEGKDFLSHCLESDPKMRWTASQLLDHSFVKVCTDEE
T2 sequence (P06493 whole entry): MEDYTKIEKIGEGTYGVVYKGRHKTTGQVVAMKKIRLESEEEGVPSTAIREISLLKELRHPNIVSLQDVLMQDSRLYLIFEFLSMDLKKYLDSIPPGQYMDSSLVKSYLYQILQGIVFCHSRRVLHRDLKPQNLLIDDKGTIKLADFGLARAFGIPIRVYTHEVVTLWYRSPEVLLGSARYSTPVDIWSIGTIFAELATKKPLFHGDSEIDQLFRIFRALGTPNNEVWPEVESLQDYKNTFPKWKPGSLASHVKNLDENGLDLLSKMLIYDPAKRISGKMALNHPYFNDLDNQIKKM
T3 sequence (Q13555 whole entry): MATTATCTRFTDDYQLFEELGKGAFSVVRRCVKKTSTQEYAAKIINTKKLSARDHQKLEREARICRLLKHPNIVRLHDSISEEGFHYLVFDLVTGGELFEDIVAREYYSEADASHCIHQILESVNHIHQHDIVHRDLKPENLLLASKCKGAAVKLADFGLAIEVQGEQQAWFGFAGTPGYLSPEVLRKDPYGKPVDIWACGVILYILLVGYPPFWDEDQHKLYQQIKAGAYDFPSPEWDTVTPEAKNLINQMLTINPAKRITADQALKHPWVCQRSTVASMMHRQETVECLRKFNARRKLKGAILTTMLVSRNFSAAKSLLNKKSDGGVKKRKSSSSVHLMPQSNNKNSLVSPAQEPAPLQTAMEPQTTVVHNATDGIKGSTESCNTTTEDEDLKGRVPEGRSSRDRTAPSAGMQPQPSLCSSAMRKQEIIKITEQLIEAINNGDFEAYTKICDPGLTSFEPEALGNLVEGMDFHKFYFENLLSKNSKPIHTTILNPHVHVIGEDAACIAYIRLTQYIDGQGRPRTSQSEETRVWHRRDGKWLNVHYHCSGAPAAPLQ

SMILES | SILAC ratio, BRAF probe-modified peptide [1] | SILAC ratio, CDK1 probe-modified peptide [2] | SILAC ratio, KCC2G probe-modified peptide [3] | SILAC ratio, M3K4 probe-modified peptide [4] | SILAC ratio, NEK3 probe-modified peptide [5] | SILAC ratio, SMG1 probe-modified peptide [6]
O=C(c1ccc(F)cc1)C1CCN(CCn2c(=O)[nH]c3ccccc3c2=O)CC1 [Ketanserin] | 1.6 | 1.4 | 1.5 | 1.2 | 1.0 | 1.3
Cc1nc2sccn2c(=O)c1CCN1CCC(=C(c2ccc(F)cc2)c2ccc(F)cc2)CC1 [Ritanserin] | 1.8 | 2.4 | 2.7 | 1.9 | 2.2 | 1.7
Fc1ccc(C(=C2CCNCC2)c2ccc(F)cc2)cc1 [RF001, 4-(Bis(4-fluorophenyl)methylene) piperidine] | 1.1 | 1.1 | 1.6 | 0.8 | 1.0 | 1.0
